The nature of data set [1]: Case Study II: 3-MMC couple's therapy. The data set is classed as in vivo, human. The following applies: heterosexual couple, 6 sessions over 6 months, 150 milligrams each orally plus booster 100 milligrams 1 hour later. The text has this: Heterosexual couple married for 17 years were caught in a cycle of repetitive conflict over what they both agreed were trivial issues. They described intense, mutual emotional reactivity and angry outbursts which was problematic enough to begin to discuss divorcing. As a last attempt to resolve their conflicts they agreed to participate in once a month 3-MMC couple's therapy. […] In this case the therapy consisted of one therapist who assessed the couple and prepared for the 3-MMC sessions with 2 non-3MMC sessions where the couple was taught a specific communication technique (Non Violent Communication). The space was a normal therapist's office with comfortable furnishings, 3 chairs and an adjoining kitchen. The 3-MMC was given orally which a dosage of 150 milligrams each followed by a booster dosage of 100 milligrams given 1 hour after the first dosage. The couple alternated between periods of listening to relaxing music and conversation, where they explored their own perspectives on how to communicate in relationship both currently and historically. The counsellor would translate some of the couple's statements in the language of non-violent communication and encourage self responsibility. The end of the session occurred 5 hours after the booster dose and a light meal was prepared and served and the couple and therapist ate and debriefed the session. […]

Data set [2] can be described thus: Case Study III: 3-MMC assisted therapy for relationship distress. The data set is classed as in vivo, human. The following applies: person, four 3-MMC assisted psychotherapy sessions, 300 milligrams orally. As for the experimental part: Single professional entered in to 3-MMC assisted therapy to understand why their relationships with men never lasted more than a few months. […] In this case the patient was assessed and prepared by the female therapist in two preliminary sessions where the patients relationship history was explored. The patient was encouraged to consider the connection between their experience of their parent's relationship when they were a child and their reaction to men they dated which was coloured by their past history. The location of the therapy was the living room of the therapist which had been prepared with inspirational art and wall hangings. The sound system consisted of headphones and an ipod with soothing/spiritual music. On the treatment days the patient was given 300 milligrams of 3-MMC orally. The treatment session started by the therapist guiding a meditation exercise and then the patient was encouraged to reflect internally by lying down with eyeshades and listening to the music. In this case the internal experience was 20 minutes after which the patient removed the eyeshades and turned off the music and proceeded to express intense emotions which related to their past anger at their parent. […]

The conditions of data set [3]: animal models, cited from earlier work.
The nature of data set [4]: Case Study I: 3-MMC-assisted psychotherapy for post-traumatic stress disorder (PTSD). The data set is classed as in vivo, human. The following applies: person, three 3-MMC-assisted psychotherapy sessions, 200 milligrams orally. The text has this:
Person suffering from PTSD who was previously incorrectly diagnosed with bipolar disorder, unable to work was under the care of a psychiatrist with no improvement in 4 years. […] In this case, the therapy consisted of both a male and female therapist in a room designed for this therapy (soft lighting, bed, attractive pillows, carefully chosen music, inspirational art—spiritual and nature). The patient was taught relaxation and breathing techniques and briefed in what to expect from the experience. In this case 200 milligrams of 3-MMC was given orally and the patient then lay down on the bed and listened to soothing music for 1.5 hours with eye shades on (internal experience). […] The therapists engaged in psychotherapy for 2 hours after which the patient once again lay down and put on the eyeshades for another 2 hours. Subsequently, the patient re-engaged with the therapists and explored their insights about how they could reframe the traumatic memory to be a positive learning experience.

A short description of data set [5]: Human subject's perception of 3-MMC's effect after oral administration. The data set is classed as in vivo. Particulars: human subjects. How it is done:
The present inventors have observed that, in some embodiments the onset of human subject's perception of 3-MMC's effect is approximately 30-90 minutes following oral administration, varying according to whether the 3-MMC was administered to a fasting (more rapid onset), or following a meal (less rapid onset). In some cases, the perception of peak effect of 3-MMC in human subjects occurred between 10 to 30 minutes after the initial perception of onset of 3-MMC's effect. The present inventors further observed that the duration of perception of the effect of 3-MMC in human subjects was, in most cases, for no greater than 4 hours following oral administration.

Data set [6] is described as follows: Case Study IV: 3-MMC-assisted psychotherapy for PTSD and Generalized Anxiety Disorder (GAD). The data set is classed as in vivo, human. Particulars: person, 200-400 mg twice weekly on two consecutive days for 8 weeks; from week 5 also EMDR with propanolol. The text has this: A person had been suffering from Post traumatic Stress Disorder (PTSD), depression, and General Anxiety Disorder (GAD).
The symptoms they experienced were panic attacks, hyperventilation, pain in the chest, numbness, and tingling in the extremities, Irritable-Bowel Syndrome (IBS), nightmares, and insomnia.
The PTSD had been caused by a particular life-threatening event, as well as other related incidences that had unfolded in their youth. The psychological ramifications of these events went undiagnosed for many years, although they were eventually treated for anxiety and depression. They refused however, to take the anti-depressants that their physician was willing to prescribe them, and only occasionally would take 5-10 mg Oxazepam for acute panic attacks.
At the time that they started with the 3-MMC-assisted psychotherapy, they had been suffering from an occupational burnout for 4 months already cf. DC-10 Z-73.0.
3-MMC was administered twice weekly on two consecutive days at a dosage of 200-400 mg each time for a period of 8 weeks. Starting at week 5; 3-MMC-assisted psychotherapy took place once a week. Each session lasted 6.5-10 h with an average of 8.5 h per session. […]

Where only a bound is given, the exact number is not on record here.

Consider `CNC(C)C(=O)c1cccc(C)c1` (stereo not drawn) [3-MMC, 3-methylmethcathinone], for which, in data set [1], the “outcome of couple's therapy” value is “able to take responsibility for their own problematic behaviour and negotiate a more functional relationship”. Besides, the “outcome of therapy for relationship distress” value in data set [2] is “understood their previously unconscious behaviour pattern”. In addition, the “time at which peak serum concentrations are apparent” value in data set [3] (after oral administration) was 5 to 10 min. Further, the apparent plasma half-life entry in data set [3] (after oral ingestion) is reported as “approximately 0.8 hours”. Also, in data set [4], the “clinical outcome of PTSD patient” value is “no longer diagnosable with either PTSD or bipolar and was able to return to gainful employment”. In data set [5] (following oral administration, fasting more rapid, following a meal less rapid), the “onset of subject's perception of effect” value lay within 30 to 90 min. Also, the “duration of perception of the effect” value in data set [5] (following oral administration, in most cases) is at most 4 h. Also, the “perception of peak effect” value in data set [5] (time after the initial perception of onset of effect, in some cases) fell in the range of 10 to 30 min. The “level of fear associated with traumatic memories” value in data set [6] is listed as “led the level of associated fear to decrease with each subsequent session”.

The record behind these values is patent US20200360311A1, “USE OF 3-METHYLMETHCATHINONE” (MIND MEDICINE, NC., priority 2017, published 2020).
